# Assays:
# rabbit [1] = conditions: Sub-acute repeat dose toxicity, new zealand white, Oral, Gavage/Intubation, dose end: 5 day, group: systemic
# rat [2] = conditions: Subchronic oral toxicity in rodents, sprague dawley, Gavage/Intubation, dose end: 93 day, group: systemic
# rat [3] = conditions: Sub-acute repeat dose toxicity; sprague dawley; Oral; Gavage/Intubation; dose end: 4 day; group: systemic; systemic / in life observation / clinical signs / respiration (rales) + systemic / in life observation / mortality / mortality + systemic / …
# rat [4] = conditions: Sub-acute repeat dose toxicity, sprague dawley, Oral, Gavage/Intubation, dose end: 7 day, group: systemic
# rat [5] = conditions: Sub-acute repeat dose toxicity; sprague dawley; Oral; Gavage/Intubation; dose end: 14 day; group: systemic; systemic / clinical chemistry / 5' nucleotidase / 5' nucleotidase + systemic / clinical chemistry / alanine aminotransferase (alt/sgpt) / …
# rabbit [6] = conditions: Sub-acute repeat dose toxicity; new zealand white; Oral; Gavage/Intubation; dose end: 4 day; group: systemic; systemic / in life observation / body weight / body weight + systemic / in life observation / food consumption / food consumption
# dog [7] = conditions: Sub-acute repeat dose toxicity, beagle, Oral, Gavage/Intubation, dose end: 5 day, group: systemic
# dog [8] = conditions: Sub-acute repeat dose toxicity; beagle; Oral; Gavage/Intubation; dose end: 5 day; group: systemic; systemic / in life observation / clinical signs / abnormal feces
# dog [9] = conditions: Subchronic oral toxicity in nonrodent, beagle, Gavage/Intubation, dose end: 93 day, group: systemic
# dog [10] = conditions: Sub-acute repeat dose toxicity; beagle; Oral; Gavage/Intubation; dose end: 14 day; group: systemic; systemic / in life observation / clinical signs / emesis + systemic / in life observation / clinical signs / tremors + systemic / in life …
# rat [11] = conditions: Prenatal developmental toxicity study, sprague dawley, Injection, Intravenous, dose end: 17 GD
# rabbit [12] = conditions: Prenatal developmental toxicity study, new zealand white, Injection, Intravenous, dose end: 19 GD
# rat [13] = conditions: Fertility (Segment I); sprague dawley; Injection; Intravenous; dose end: 20 GD; group: parental; systemic / in life observation / body weight / body weight gain + systemic / in life observation / food consumption / food consumption + …
# [14] = systemic / in life observation / body weight / body weight + systemic / in life observation / clinical signs / erythema
# [15] = systemic / in life observation / clinical signs / erythema
# [16] = systemic / in life observation / clinical signs / abnormal respiratory sounds + systemic / in life observation / clinical signs / salivation
# [17] = systemic / organ weight / adrenal gland / absolute + systemic / in life observation / food consumption / food consumption + systemic / …
# [18] = systemic / clinical chemistry / albumin-globulin ratio / albumin-globulin ratio + systemic / clinical chemistry / cholesterol / cholesterol…
# [19] = systemic / in life observation / clinical signs / salivation + systemic / pathology microscopic / liver / vacuolization
# [20] = systemic / in life observation / clinical signs / abnormal feces + systemic / in life observation / clinical signs / arrhythmia + systemic…
# [21] = systemic / in life observation / clinical signs / salivation
# [22] = systemic / in life observation / clinical signs / abnormal feces + systemic / in life observation / clinical signs / salivation
# [23] = systemic / in life observation / clinical signs / emesis + systemic / organ weight / adrenal gland / absolute + systemic / clinical …
# [24] = group: developmental, developmental / developmental malformation / bone / incomplete ossification + developmental / developmental malformation / bone / knobby + …
# [25] = group: developmental, developmental / developmental malformation / ureter / convoluted
# [26] = group: maternal, systemic / in life observation / body weight / body weight gain
# [27] = group: maternal, systemic / in life observation / body weight / body weight gain + systemic / in life observation / food consumption / food consumption
# [28] = group: developmental, developmental / developmental malformation / heart / enlarged aortic valve
# [29] = group: maternal, reproductive / offspring survival early / litter size / litter size
compound,measurement,setting,value
COc1ccc(C(C)(C)C)cc1CN[C@H]1C2CCN(CC2)[C@H]1C(c1ccccc1)c1ccccc1,LOAEL,rabbit [1]; [14],> 150 mg/kg/day
same,NOAEL,rabbit [1]; [14],≥ 150 mg/kg/day
same,LEL,rabbit [1]; [15],5 mg/kg/day
same,NEL,rabbit [1]; [15],< 5 mg/kg/day
same,LEL,rat [2]; [16],5 mg/kg/day
same,NEL,rat [2]; [16],< 5 mg/kg/day
same,LOAEL,rat [2]; [17],> 150 mg/kg/day
same,NOAEL,rat [2]; [17],≥ 150 mg/kg/day
same,LEL,rat [3],300 mg/kg/day
same,LOAEL,rat [3],> 300 mg/kg/day
same,NEL,rat [3],< 300 mg/kg/day
same,NOAEL,rat [3],≥ 300 mg/kg/day
same,LOAEL,rat [4]; [18],> 100 mg/kg/day
same,NOAEL,rat [4]; [18],≥ 100 mg/kg/day
same,LEL,rat [4]; [19],30 mg/kg/day
same,NEL,rat [4]; [19],< 30 mg/kg/day
same,LOAEL,rat [5],> 500 mg/kg/day
same,NEL,rat [5],< 150 mg/kg/day
same,NOAEL,rat [5],≥ 500 mg/kg/day
same,LOAEL,rabbit [6],> 150 mg/kg/day
same,NEL,rabbit [6],30 mg/kg/day
same,NOAEL,rabbit [6],≥ 150 mg/kg/day
same,LOAEL,dog [7]; [20],> 20 mg/kg/day
same,NOAEL,dog [7]; [20],≥ 20 mg/kg/day
same,LEL,dog [7]; [21],5 mg/kg/day
same,NEL,dog [7]; [21],< 5 mg/kg/day
same,LEL,dog [8],5 mg/kg/day
same,LOAEL,dog [8],> 20 mg/kg/day
same,NEL,dog [8],< 5 mg/kg/day
same,NOAEL,dog [8],≥ 20 mg/kg/day
same,LEL,dog [9]; [22],1 mg/kg/day
same,NEL,dog [9]; [22],< 1 mg/kg/day
same,LOAEL,dog [9]; [23],> 20 mg/kg/day
same,NOAEL,dog [9]; [23],≥ 20 mg/kg/day
same,LEL,dog [10],20 mg/kg/day
same,LOAEL,dog [10],> 20 mg/kg/day
same,NEL,dog [10],< 20 mg/kg/day
same,NOAEL,dog [10],≥ 20 mg/kg/day
CCOC(=O)c1ccc(C2CCC(NC[C@H](O)COc3ccc(O)c(NS(C)(=O)=O)c3)CC2)cc1.Cl (stereo partly specified),LOAEL,rat [11]; [24],160 mg/kg/day
same,NOAEL,rat [11]; [24],40 mg/kg/day
same,LEL,rat [11]; [25],10 mg/kg/day
same,NEL,rat [11]; [25],< 10 mg/kg/day
same,LEL,rat [11]; [26],10 mg/kg/day
same,NEL,rat [11]; [26],< 10 mg/kg/day
same,LOAEL,rat [11]; [27],160 mg/kg/day
same,NOAEL,rat [11]; [27],40 mg/kg/day
same,LEL,rabbit [12]; [28],160 mg/kg/day
same,LOAEL,rabbit [12]; [28],> 160 mg/kg/day
same,NEL,rabbit [12]; [28],80 mg/kg/day
same,NOAEL,rabbit [12]; [28],≥ 160 mg/kg/day
same,LOAEL,rabbit [12]; [29],80 mg/kg/day
same,NOAEL,rabbit [12]; [29],40 mg/kg/day
same,LEL,"rabbit [12]; group: maternal, reproductive / offspring survival early / litter size / litter size + reproductive / reproductive performance / postimplantation loss / …",80 mg/kg/day
same,NEL,"rabbit [12]; group: maternal, reproductive / reproductive performance / postimplantation loss / postimplantation loss + reproductive / reproductive performance / …",40 mg/kg/day
same,LEL,rat [13],160 mg/kg/day
same,LOAEL,rat [13],160 mg/kg/day

# Reference: EPA's ToxRefDB 2
